Read-outs that look alike come from different tables or passages of the source. Marks after values point to notes of the source that are not given here.
Tests used:
Huh6 cells = tested on: Huh6 cells
Description: All experiments were performed in duplicate.
3.8–4.0 × 10^5 cells per well were seeded into 6‐well plates with 3 mL of RPMI (4% FBS) for 12 hr, then dilutions of stock solutions of the diagnostic mutagens were added for different time periods (4, 24, and 48 hr). In each experimental series solvent controls were included. Subsequently, the cells were washed twice with 3.0 mL medium. […] Finally, the cells were washed and trypsinised. Afterwards the cells were washed twice with 8.0 mL RPMI and collected on slides by cytocentrifugation (600 rpm, 5 min). The slides were air dried, fixed, and stained with DiffQuick according to the instructions of the manufacturer. For each experimental point, two cultures were tested per dose. From each culture ≥1,000 BN cells were evaluated under 400‐fold magnification (Nikon Photophot‐FXA, Tokyo, Japan). At least 2,000 binucleated cells were analyzed per dose for the determination of the different nuclear anomalies (MN, NBuds, and NBs).
The experiments were performed as described in the previous chapter. The cells were exposed only to one dose of the different mutagens and were cultivated after the seeding in 6‐well plates which contained 4% or 10% FBS in RPMI, respectively.
Data were evaluated by generalized linear model with Poisson counts. Chi‐square tests for overdispersion were applied. […] P values ≤0.05 were considered statistically significant.
^150-60 000 cells were seeded in 6 well plates with 3 ml RPMI (4% FBS), subsequently different solutions of the test compound (dissolved in medium) were added. After treatment for different time periods, the cells was washed and processed as described in the Material and Method section. […] From each culture 1000 binoculated cells were evaluated. BN-MN – number of micronucleated cells; MN - total number of micronuclei; CBPI – cytokinesis-block proliferation index
^1The experiments were conducted essentially as described in the footnote of Table S1A-I. *p≤0.05

HepG2 = conditions: HepG2, cited from earlier work
Hep3B = conditions: Hep3B; ref Majer et al., 2004; cited from earlier work
Human lymphocytes = conditions: Human lymphocytes, + S9; ref Katic et al., 2010; cited from earlier work
[1] = ref IARC (2018); cited from earlier work
[2] = 10% FBS, 24 hr treatment, 100 µM

## CN(C)N=O [NDMA, N‐nitrosodimethylamine]
Huh6 cells; 4% FBS
  MN effects after 24 hr (or longer) compared with 4 hr treatment (in words): more pronounced effects
Huh6 cells; 4% FBS, 4hrs, 50 mM
  BN-MN (number of micronucleated cells): 21.0 ± 1.4 ‰
  Bridges: 0.5 ± 0.7 ‰
  Buds: 16.5 ± 2.1 ‰
  CBPI: 1.7 ± 0.1
  MN (total number of micronuclei): 21.5 ± 0.7 ‰
Huh6 cells; 4% FBS, 4hrs, 100 mM
  BN-MN (number of micronucleated cells): 24.0 ± 2.8 ‰
  Bridges: 0.5 ± 0.7 ‰
  Buds: 20.0 ± 1.4 ‰
  CBPI: 1.7 ± 0.0
  MN (total number of micronuclei): 26.5 ± 0.7 ‰
Huh6 cells; 4% FBS, 4hrs, 200 mM
  BN-MN (number of micronucleated cells): 26.5 ± 2.1* ‰
  Bridges: 0.5 ± 0.7 ‰
  Buds: 25.5 ± 5.0* ‰
  CBPI: 1.5 ± 0.0
  MN (total number of micronuclei): 27.5 ± 0.7* ‰
Huh6 cells; 4% FBS, 24hrs, 25 mM
  BN-MN (number of micronucleated cells): 20.5 ± 0.7 ‰
  Bridges: 0.0 ± 0.0 ‰
  Buds: 7.0 ± 1.4 ‰
  CBPI: 1.8 ± 0.1
  MN (total number of micronuclei): 20.5 ± 0.7 ‰
Huh6 cells; 4% FBS, 24hrs, 50 mM
  BN-MN (number of micronucleated cells): 21.5 ± 5.0 ‰
  Bridges: 0.5 ± 0.7 ‰
  Buds: 9.5 ± 2.1* ‰
  CBPI: 1.8 ± 0.1
  MN (total number of micronuclei): 22.5 ± 3.5 ‰
Huh6 cells; 4% FBS, 24hrs, 100 mM
  BN-MN (number of micronucleated cells): 30.0 ± 2.8* ‰
  Bridges: 3.5 ± 0.7 ‰
  Buds: 13.0 ± 4.2* ‰
  CBPI: 1.7 ± 0.0
  MN (total number of micronuclei): 32.0 ± 2.8* ‰
Huh6 cells; 4% FBS, 48hrs, 25 mM
  BN-MN (number of micronucleated cells): 20.5 ± 0.7 ‰
  Bridges: 0.5 ± 0.7 ‰
  Buds: 23.0 ± 2.8 ‰
  CBPI: 1.8 ± 0.0
  MN (total number of micronuclei): 21.5 ± 2.1 ‰
Huh6 cells; 4% FBS, 48hrs, 50 mM
  BN-MN (number of micronucleated cells): 22.0 ± 4.2 ‰
  Bridges: 1.0 ± 1.4 ‰
  Buds: 27.0 ± 4.2 ‰
  CBPI: 1.8 ± 0.0
  MN (total number of micronuclei): 23.5 ± 5.0 ‰
Huh6 cells; 4% FBS, 48hrs, 100 mM
  BN-MN (number of micronucleated cells): 40.5 ± 2.1* ‰
  Bridges: 3.0 ± 1.4 ‰
  Buds: 35.5 ± 3.5* ‰
  CBPI: 1.7 ± 0.1
  MN (total number of micronuclei): 53.0 ± 4.2* ‰
Huh6 cells; [2]
  BN-MN (number of micronucleated cells): 33.0 ± 2.8*
  Bridges: 3.5 ± 0.7
  Buds: 28.0 ± 2.8
  CBPI: 1.9 ± 0.0
  MN (total number of micronuclei): 34.5 ± 5.0*
Huh6 cells; Huh6
  Lowest effective concentration (LOEC) in micronucleus experiments: 100000 µM
HepG2; ref Majer et al., 2004
  Lowest effective concentration (LOEC) in micronucleus experiments: 30000 µM
HepG2; ref Natarajan and Darroudi (1991)
  MN induction after 28 hr compared with 1 hr exposure (in words): stronger effects
HepG2; ref Valentin‐Severin et al., 2003
  Lowest effective concentration (LOEC) in micronucleus experiments: 10000 µM
Hep3B
  Lowest effective concentration (LOEC) in micronucleus experiments: Negative
  NOEC (highest no observable effect concentration tested): 180000 µM
Human lymphocytes
  Lowest effective concentration (LOEC) in micronucleus experiments: Negative
  NOEC (highest no observable effect concentration tested): 67500 µM
[1]
  IARC classification: Methylation of the DNA; activation: CYP2E1; IARC: Group 2A

From PMC6492180, “Cytome micronucleus assays with a metabolically competent human derived liver cell line (Huh6): A promising approach for routine testing of chemicals?” (Environmental and Molecular Mutagenesis, 2018)
